Source: patent US20240400577A1, “MODULATORS OF PROTEIN KINASES” (VIBLIOME THERAPEUTICS, LLC, priority 2021, published 2024)
Values belong to the compound of their own block, whether it stands above or below them.

Columns and labels:
Experiment in all cases: Kinase panel enzymatic inhibition assay (Nanosyn)
Format in all cases: biochemical
[1] = molecular target: T1, WEE1 (Homo sapiens, UniProt P30291); settings: ATP at Km; 30-minute pre-incubation; read-out: kinase inhibition in terms of IC50, WEE1
T1 construct: purchased Nanosyn
Description: (§1) The disclosed compounds were tested for activity against a panel of at least 300 kinases. Kinase panel screening was conducted by Nanosyn (Santa Clara, CA 95051) using an enzymatic inhibition assay accepted as valid by those skilled in the art (e.g., the Caliper LabChip® mobility shift assay, an ADP detection assay, or time-resolved fluorescence detection technology. Compounds were screened at a concentration of 5 μM using an ATP concentration at the Km for each of the respective kinases and a 30-minute pre-incubation time-point.
(§2) In Table 1 and 2, kinase inhibition is classified by: A=95% or greater, B=90%-94%, C=80%-89%, and D=79% and less with a compound concentration of 5 JIM. In Table 3 and 4, kinase inhibition is reported in terms of IC50 values corresponding to A=less than 500 nm, B=500 nm to less than 1 μM, C=1 μM to less than 10 μM, and D=10 μM or greater using a compound concentration of 5 μM.

[2] = molecular target: T2, PAK1 (Homo sapiens, UniProt Q13153); settings: ATP at Km; 30-minute pre-incubation; read-out: kinase inhibition in terms of IC50, PAK1
T2 construct: Nanosyn (contract laboratory that ran the panel)
Description: as §1, §2

[3] = molecular target: T3, SYK (Homo sapiens, UniProt P43405); settings: ATP at Km; 30-minute pre-incubation; read-out: kinase inhibition in terms of IC50, SYK
T3 construct: purchased Nanosyn
Description: as §1, §2

[4] = molecular target: T4, TYRO3 (Homo sapiens, UniProt Q06418); settings: ATP at Km; 30-minute pre-incubation; read-out: kinase inhibition in terms of IC50, TYRO3
T4 construct: purchased Nanosyn
T4 sequence (Q06418 41-890): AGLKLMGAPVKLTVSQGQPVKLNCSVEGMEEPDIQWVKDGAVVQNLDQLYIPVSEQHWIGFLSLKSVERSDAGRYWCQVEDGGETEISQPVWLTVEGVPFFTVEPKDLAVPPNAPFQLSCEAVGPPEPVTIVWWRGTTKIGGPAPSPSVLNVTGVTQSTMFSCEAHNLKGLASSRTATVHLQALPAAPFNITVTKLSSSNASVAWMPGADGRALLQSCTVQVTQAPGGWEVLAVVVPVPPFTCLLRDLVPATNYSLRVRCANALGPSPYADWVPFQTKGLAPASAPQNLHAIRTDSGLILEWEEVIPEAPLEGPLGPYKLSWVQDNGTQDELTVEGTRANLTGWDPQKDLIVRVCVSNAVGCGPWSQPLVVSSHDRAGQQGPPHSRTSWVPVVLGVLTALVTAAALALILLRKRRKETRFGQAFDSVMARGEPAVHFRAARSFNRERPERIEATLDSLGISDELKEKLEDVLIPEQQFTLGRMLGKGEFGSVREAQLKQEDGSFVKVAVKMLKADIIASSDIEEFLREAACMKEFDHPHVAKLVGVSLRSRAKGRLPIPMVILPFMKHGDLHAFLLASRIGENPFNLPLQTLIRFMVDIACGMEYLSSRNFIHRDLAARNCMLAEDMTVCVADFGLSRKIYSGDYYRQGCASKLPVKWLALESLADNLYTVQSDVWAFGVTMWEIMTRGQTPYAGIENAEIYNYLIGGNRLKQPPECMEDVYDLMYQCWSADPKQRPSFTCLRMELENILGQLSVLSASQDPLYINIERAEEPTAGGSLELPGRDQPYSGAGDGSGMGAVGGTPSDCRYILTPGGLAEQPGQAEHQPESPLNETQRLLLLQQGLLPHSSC
Description: as §1, §2

[5] = molecular target: T5, RIPK1 (Homo sapiens, UniProt Q13546); settings: ATP at Km; 30-minute pre-incubation; read-out: kinase inhibition in terms of IC50, RIPK1
T5 construct: purchased Nanosyn
T5 sequence (Q13546 1-671): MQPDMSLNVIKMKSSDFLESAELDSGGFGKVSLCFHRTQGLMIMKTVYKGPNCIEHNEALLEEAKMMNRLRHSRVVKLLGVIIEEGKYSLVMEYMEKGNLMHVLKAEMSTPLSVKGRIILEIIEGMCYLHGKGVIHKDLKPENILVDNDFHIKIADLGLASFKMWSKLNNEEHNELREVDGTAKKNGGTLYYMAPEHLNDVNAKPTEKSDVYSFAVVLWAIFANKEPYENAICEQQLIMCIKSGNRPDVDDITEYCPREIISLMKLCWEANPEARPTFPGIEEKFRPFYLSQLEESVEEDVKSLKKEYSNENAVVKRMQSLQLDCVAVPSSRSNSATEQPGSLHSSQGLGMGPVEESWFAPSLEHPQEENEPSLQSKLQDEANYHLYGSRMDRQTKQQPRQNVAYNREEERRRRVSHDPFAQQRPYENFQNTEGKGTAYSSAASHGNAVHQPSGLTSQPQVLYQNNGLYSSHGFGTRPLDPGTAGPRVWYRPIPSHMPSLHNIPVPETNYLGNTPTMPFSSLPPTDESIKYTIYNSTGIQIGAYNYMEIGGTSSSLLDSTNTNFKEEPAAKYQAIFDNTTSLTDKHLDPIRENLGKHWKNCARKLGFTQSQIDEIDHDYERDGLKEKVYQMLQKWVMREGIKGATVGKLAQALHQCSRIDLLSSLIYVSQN
Description: as §1, §2

[6] = molecular target: T6, RIPK2 (Homo sapiens, UniProt O43353); settings: ATP at Km; 30-minute pre-incubation; read-out: kinase inhibition in terms of IC50, RIPK2
T6 construct: purchased Nanosyn
Description: as §1, §2

[7] = molecular target: T7, TAK1-TAB1 (Homo sapiens, UniProt O43318); settings: ATP at Km; 30-minute pre-incubation; read-out: kinase inhibition in terms of IC50, TAK1-TAB1
T7 construct: purchased Nanosyn
T7 sequence (O43318 with tags, fused parts or gaps limits assumed): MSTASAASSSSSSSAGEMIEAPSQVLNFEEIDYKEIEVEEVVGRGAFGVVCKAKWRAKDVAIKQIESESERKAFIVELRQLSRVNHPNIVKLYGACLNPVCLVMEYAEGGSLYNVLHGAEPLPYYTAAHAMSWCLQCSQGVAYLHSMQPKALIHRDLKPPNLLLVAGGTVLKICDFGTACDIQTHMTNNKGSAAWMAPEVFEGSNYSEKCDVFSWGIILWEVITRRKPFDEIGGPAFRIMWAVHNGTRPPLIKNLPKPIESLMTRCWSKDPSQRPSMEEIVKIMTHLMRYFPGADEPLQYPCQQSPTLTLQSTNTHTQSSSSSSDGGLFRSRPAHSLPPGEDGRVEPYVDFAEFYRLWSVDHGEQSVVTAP
Description: as §1, §2

[8] = molecular target: T8, PLK4 (Homo sapiens, UniProt O00444); settings: ATP at Km; 30-minute pre-incubation; read-out: kinase inhibition in terms of IC50, PLK4
T8 construct: Nanosyn (contract laboratory that ran the panel)
T8 sequence (O00444 1-970): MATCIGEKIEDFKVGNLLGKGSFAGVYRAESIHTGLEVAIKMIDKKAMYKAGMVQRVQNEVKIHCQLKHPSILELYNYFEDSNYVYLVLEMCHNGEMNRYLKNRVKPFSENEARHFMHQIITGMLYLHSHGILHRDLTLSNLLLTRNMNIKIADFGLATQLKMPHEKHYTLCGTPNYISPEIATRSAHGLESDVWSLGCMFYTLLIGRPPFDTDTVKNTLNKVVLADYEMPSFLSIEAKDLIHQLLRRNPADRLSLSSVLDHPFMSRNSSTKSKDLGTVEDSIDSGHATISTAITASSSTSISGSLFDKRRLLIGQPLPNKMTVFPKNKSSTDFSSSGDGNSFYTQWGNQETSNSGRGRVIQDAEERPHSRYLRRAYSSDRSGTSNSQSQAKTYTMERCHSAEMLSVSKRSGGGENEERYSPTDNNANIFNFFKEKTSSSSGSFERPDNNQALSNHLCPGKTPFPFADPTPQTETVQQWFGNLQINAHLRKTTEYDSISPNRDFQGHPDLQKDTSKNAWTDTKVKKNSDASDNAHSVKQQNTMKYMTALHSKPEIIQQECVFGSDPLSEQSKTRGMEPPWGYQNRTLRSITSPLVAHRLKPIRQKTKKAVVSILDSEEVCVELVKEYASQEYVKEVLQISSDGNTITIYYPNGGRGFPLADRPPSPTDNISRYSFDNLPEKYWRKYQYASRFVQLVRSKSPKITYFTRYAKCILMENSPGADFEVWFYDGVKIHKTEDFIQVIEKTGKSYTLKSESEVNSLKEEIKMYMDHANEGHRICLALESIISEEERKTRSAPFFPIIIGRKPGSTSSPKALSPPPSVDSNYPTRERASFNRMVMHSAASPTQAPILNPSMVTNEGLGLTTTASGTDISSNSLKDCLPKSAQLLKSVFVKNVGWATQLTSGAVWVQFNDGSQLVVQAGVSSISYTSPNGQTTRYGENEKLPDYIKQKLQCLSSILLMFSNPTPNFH
Description: as §1, §2

T1 sequence (P30291 whole entry): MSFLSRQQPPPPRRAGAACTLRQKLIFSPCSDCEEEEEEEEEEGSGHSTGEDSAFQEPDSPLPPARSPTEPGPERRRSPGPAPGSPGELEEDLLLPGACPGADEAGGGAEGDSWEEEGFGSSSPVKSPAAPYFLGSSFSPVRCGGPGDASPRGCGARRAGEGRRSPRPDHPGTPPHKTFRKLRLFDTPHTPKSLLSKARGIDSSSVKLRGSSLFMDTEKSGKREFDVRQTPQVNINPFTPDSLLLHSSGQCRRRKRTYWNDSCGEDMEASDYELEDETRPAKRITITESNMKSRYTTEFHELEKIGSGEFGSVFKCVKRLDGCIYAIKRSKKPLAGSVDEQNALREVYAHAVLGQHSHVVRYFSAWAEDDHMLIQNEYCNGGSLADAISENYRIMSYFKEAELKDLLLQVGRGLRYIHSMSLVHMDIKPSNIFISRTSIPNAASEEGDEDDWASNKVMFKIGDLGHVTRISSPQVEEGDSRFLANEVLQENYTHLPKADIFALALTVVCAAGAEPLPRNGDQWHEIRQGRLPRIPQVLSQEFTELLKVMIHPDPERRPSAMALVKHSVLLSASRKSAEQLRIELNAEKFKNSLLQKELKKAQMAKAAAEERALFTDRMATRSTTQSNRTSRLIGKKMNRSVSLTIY
T6 sequence (O43353 whole entry): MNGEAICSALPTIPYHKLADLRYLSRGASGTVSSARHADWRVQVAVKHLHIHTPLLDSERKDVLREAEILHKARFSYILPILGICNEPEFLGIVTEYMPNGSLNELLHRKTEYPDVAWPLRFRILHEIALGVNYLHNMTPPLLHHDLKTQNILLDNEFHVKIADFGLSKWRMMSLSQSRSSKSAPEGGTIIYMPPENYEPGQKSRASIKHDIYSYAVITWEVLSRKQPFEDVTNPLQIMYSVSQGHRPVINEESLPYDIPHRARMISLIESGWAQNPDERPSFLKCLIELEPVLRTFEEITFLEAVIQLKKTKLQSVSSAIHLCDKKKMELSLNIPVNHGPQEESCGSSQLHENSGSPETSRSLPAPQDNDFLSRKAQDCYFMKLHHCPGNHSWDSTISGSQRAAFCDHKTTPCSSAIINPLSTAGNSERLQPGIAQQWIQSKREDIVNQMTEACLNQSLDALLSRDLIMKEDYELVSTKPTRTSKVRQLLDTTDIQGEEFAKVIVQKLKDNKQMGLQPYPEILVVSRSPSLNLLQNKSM
T2 sequence (Q13153 whole entry): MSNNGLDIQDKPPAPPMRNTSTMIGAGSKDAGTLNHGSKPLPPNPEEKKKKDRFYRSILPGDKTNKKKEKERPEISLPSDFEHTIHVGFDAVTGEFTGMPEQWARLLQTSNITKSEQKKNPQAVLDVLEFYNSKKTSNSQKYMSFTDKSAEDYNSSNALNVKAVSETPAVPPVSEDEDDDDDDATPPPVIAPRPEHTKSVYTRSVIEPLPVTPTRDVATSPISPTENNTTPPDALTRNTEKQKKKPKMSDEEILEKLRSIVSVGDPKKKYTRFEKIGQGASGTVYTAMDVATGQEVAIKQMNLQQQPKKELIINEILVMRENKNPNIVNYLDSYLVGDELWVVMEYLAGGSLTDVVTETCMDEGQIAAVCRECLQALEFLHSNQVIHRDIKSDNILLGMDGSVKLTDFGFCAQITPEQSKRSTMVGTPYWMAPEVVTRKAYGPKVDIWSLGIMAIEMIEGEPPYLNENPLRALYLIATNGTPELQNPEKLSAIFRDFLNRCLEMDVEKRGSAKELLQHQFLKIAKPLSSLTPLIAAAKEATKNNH

IC50 [1]: ≥ 10 µM
SMILES: CNc1ncc2c(C)c(-c3cc(NC(=O)c4ccn(-c5ccc(F)cc5)n4)ccc3Cl)c(=O)n(C)c2n1 [Ex69, N-(4-chloro-3-(5,8-dimethyl-2-(methylamino)-7-oxo-7,8-dihydropyrido[2,3-d]pyrimidin-6-yl)phenyl)-1-(4-fluorophenyl)-1H-pyrazole-3-carboxamide]

IC50 [1]: ≥ 10 µM
SMILES: CS(=O)(=O)c1cc(C(=O)Nc2cc(Br)c(F)c(C(=O)c3c[nH]c4ncc(Cl)cc34)c2F)nn1-c1ccc(F)cc1 [Ex70, N-(5-bromo-3-(5-chloro-1H-pyrrolo[2,3-b]pyridine-3-carbonyl)-2,4-difluorophenyl)-1-(4-fluorophenyl)-5-(methylsulfonyl)-1H-pyrazole-3-carboxamide]

IC50 [2]: ≥ 10 µM
IC50 [3]: 1 to 10 µM
IC50 [1]: ≥ 10 µM
SMILES: CNc1ncc2cc(-c3cc(NC(=O)c4ccn(-c5ccc(F)cc5)n4)ccc3C)c(=O)n(C)c2n1 [Ex74, 1-(4-fluorophenyl)-N-(4-methyl-3-(8-methyl-2-(methylamino)-7-oxo-7,8-dihydropyrido[2,3-d]pyrimidin-6-yl)phenyl)-1H-pyrazole-3-carboxamide]

IC50 [3]: ≥ 10 µM
IC50 [4]: < 0.5 µM
SMILES: COc1cc2nccc(Oc3ccc(NC(=O)c4cc(SC)n(-c5ccc(F)cc5)n4)c(F)c3)c2cc1OC [Ex77, N-(4-((6,7-dimethoxyquinolin-4-yl)oxy)-2-fluorophenyl)-1-(4-fluorophenyl)-5-(methylthio)-1H-pyrazole-3-carboxamide]

IC50 [3]: 1 to 10 µM
IC50 [4]: < 0.5 µM
SMILES: COc1cc2nccc(Oc3ccc(NC(=O)c4ccn(-c5ccc(F)cc5)n4)c(F)c3)c2cc1OC [Ex78, N-(4-((6,7-dimethoxyquinolin-4-yl)oxy)-2-fluorophenyl)-1-(4-fluorophenyl)-1H-pyrazole-3-carboxamide]

IC50 [5]: < 0.5 µM
IC50 [6]: < 0.5 µM
SMILES: Cc1ccc(NC(=O)c2ccn(-c3ccc(F)cc3)n2)cc1C#Cc1cnc2cccnn12 [Ex79, 1-(4-fluorophenyl)-N-(3-(imidazo[1,2-b]pyridazin-3-ylethynyl)-4-methylphenyl)-1H-pyrazole-3-carboxamide]

IC50 [5]: ≥ 10 µM
IC50 [6]: ≥ 10 µM
SMILES: Cn1cnc2ccc(Oc3ccc(F)c(NC(=O)c4ccn(-c5ccc(F)cc5)n4)c3)cc2c1=O [Ex80, N-(2-fluoro-5-((3-methyl-4-oxo-3,4-dihydroquinazolin-6-yl)oxy)phenyl)-1-(4-fluorophenyl)-1H-pyrazole-3-carboxamide]

IC50 [3]: 1 to 10 µM
SMILES: Nc1ncnc2scc(C#Cc3cccc(NC(=O)c4ccn(-c5ccc(F)cc5)n4)c3)c12 [Ex81, N-(3-((4-aminothieno[2,3-d]pyrimidin-5-yl)ethynyl)phenyl)-1-(4-fluorophenyl)-1H-pyrazole-3-carboxamide]

IC50 [1]: ≥ 10 µM
SMILES: CNc1ncc2cc(-c3c(Cl)ccc(NC(=O)c4ccn(-c5ccc(F)cc5)n4)c3Cl)c(=O)n(C)c2n1 [Ex82, N-(2,4-dichloro-3-(8-methyl-2-(methylamino)-7-oxo-7,8-dihydropyrido[2,3-d]pyrimidin-6-yl)phenyl)-1-(4-fluorophenyl)-1H-pyrazole-3-carboxamide]

IC50 [7]: ≥ 10 µM
SMILES: Cc1ccc(NC(=O)c2ccn(-c3ccc(F)cc3)n2)cc1Oc1ccnc2[nH]ccc12 [Ex83, N-(3-((1H-pyrrolo[2,3-b]pyridin-4-yl)oxy)-4-methylphenyl)-1-(4-fluorophenyl)-1H-pyrazole-3-carboxamide]

IC50 [8]: ≥ 10 µM
SMILES: O=C(Nc1cccc(NC(=O)c2ccn(-c3ccc(F)cc3)n2)c1)c1cccc(-c2ccn[nH]2)n1 [Ex84, N-(3-(1-(4-fluorophenyl)-1H-pyrazole-3-carboxamido)phenyl)-6-(1H-pyrazol-5-yl)picolinamide]

IC50 [8]: < 0.5 µM
SMILES: CC(=O)Nc1nc(C)c(-c2ccnc(Nc3cc(NC(=O)c4ccn(-c5ccc(F)cc5)n4)ccc3C)n2)s1 [Ex86, N-(3-((4-(2-acetamido-4-methylthiazol-5-yl)pyrimidin-2-yl)amino)-4-methylphenyl)-1-(4-fluorophenyl)-1H-pyrazole-3-carboxamide]
